Consider four molecules from ChEMBL document CHEMBL1201862, “PubChem BioAssay data set” (2004).

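Cells were grown in 96-well plates and exposed to each compound for 48 hours at five concentrations; endpoints were interpolated linearly between bracketing concentrations, or set to the highest concentration if not reached. GI50: concentration for 50% inhibition of growth.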 The source made the active and inactive calls. Cut-off read from the data, not from the text of the source: active = GI50 up to about 1.1 µM and inactive = higher.

Among the test systems are SF-268; CAKI-1; OVCAR-3; KM12; SK-OV-3; SW-620; RPMI-8226; NCI-H460; HCT-116; PC-3; M14; SN12C; SK-MEL-5; U-251; MDA-MB-435; K562; SNB-75; IGROV-1; HOP-92; HCT-15.
Common to all, as to test: NCI anticancer screen, dose series, 48 h

For `N#CC(=S)Nc1ccc(F)cc1`, the GI50 in the assay on SF-268 was 96.8 µM (inactive); with CAKI-1 it was 63.8 µM (inactive); in the assay with OVCAR-3, 56.4 µM (inactive); with KM12, 70.3 µM (inactive); in the assay with SK-OV-3, > 100 µM (inactive); in the assay on SW-620, 60.8 µM (inactive). For the same molecule, the GI50 in the assay on RPMI-8226 was 8.22 µM (inactive); with NCI-H460 it was 55.3 µM (inactive); in the assay with HCT-116 it was 86.1 µM (inactive); with PC-3, 57.7 µM (inactive); in the assay on M14, 54.3 µM (inactive); with SN12C it was > 100 µM (inactive). Moreover, the GI50 was 17 µM (inactive) in the assay with SK-MEL-5; 34.4 µM (inactive) with U-251; 38 µM (inactive) with MDA-MB-435; 23.9 µM (inactive) with K562; > 100 µM (inactive) with SNB-75; 32.1 µM (inactive) with IGROV-1. The results for the GI50 with HOP-92 and in the assay on HCT-15 were 19.4 µM (inactive) and 88.7 µM, respectively.
On to `O=C1c2cccc3cccc(c23)C(=O)N1O`, for which the GI50 in the assay on SF-268 is 70.5 µM (inactive); with CAKI-1, 49.8 µM (inactive); in the assay with OVCAR-3, 57.4 µM (inactive); in the assay with KM12, 45.4 µM (inactive); with SK-OV-3, 68.2 µM (inactive); with SW-620, 14.5 µM (inactive). Moreover, the GI50 in the assay with RPMI-8226 is 45.6 µM (inactive); in the assay on NCI-H460 it was 29.2 µM (inactive); in the assay on HCT-116, 27.4 µM (inactive); in the assay on PC-3, 76.2 µM (inactive); in the assay with M14 it was 51.9 µM (inactive); in the assay with SN12C, 54.1 µM (inactive). The GI50 is > 100 µM (inactive) in the assay on SK-MEL-5; 28.6 µM (inactive) with U-251; > 100 µM (inactive) in the assay with MDA-MB-435; 36.7 µM (inactive) in the assay on K562; 27.7 µM (inactive) in the assay on SNB-75; 20.2 µM (inactive) with IGROV-1. In addition, the GI50 is 25.7 µM (inactive) in the assay with HOP-92 and 40.9 µM with HCT-15.
On to `COC(CC1(/C=C/O[Si](C(C)C)(C(C)C)C(C)C)C(=O)N(COCC[Si](C)(C)C)c2ccccc21)OC` (stereo not given), for which the GI50 was 17 µM (inactive) with SF-268; 46.3 µM (inactive) in the assay on CAKI-1; 13.1 µM (inactive) with OVCAR-3; 36.1 µM (inactive) in the assay on KM12; 20.8 µM (inactive) in the assay on SK-OV-3; 37.2 µM (inactive) in the assay on SW-620. Further, the GI50 was > 100 µM (inactive) with RPMI-8226; 23.1 µM (inactive) with NCI-H460; 16.1 µM (inactive) with HCT-116; 22.1 µM (inactive) in the assay on PC-3; 27.2 µM (inactive) in the assay on M14; 45.1 µM (inactive) in the assay on SN12C. Also, the GI50 is 23.1 µM (inactive) with SK-MEL-5; 31.8 µM (inactive) in the assay on U-251; 23.2 µM (inactive) in the assay on MDA-MB-435; > 100 µM (inactive) with K562; 81.8 µM (inactive) with SNB-75; 24.5 µM (inactive) in the assay on IGROV-1. For the same molecule, the GI50 in the assay with HOP-92 was 9.48 µM (inactive); with HCT-15, 36.6 µM.
With `Nc1nc(Cl)cc(NCC2(CO)CC(c3ccccc3)C2)n1` (stereo not given), the GI50 in the assay on SF-268 is 94.4 µM (inactive); in the assay on CAKI-1 it was > 100 µM (inactive); with OVCAR-3, > 100 µM (inactive); in the assay on KM12 it was 39.5 µM (inactive); with SK-OV-3, 54.2 µM (inactive); with SW-620, > 100 µM (inactive). For the same molecule, the GI50 is 17.2 µM (inactive) in the assay with RPMI-8226; 43.4 µM (inactive) in the assay with NCI-H460; 11.4 µM (inactive) in the assay on HCT-116; 18 µM (inactive) with PC-3; 34.6 µM (inactive) with M14; 13.8 µM (inactive) in the assay on SN12C. In addition, the GI50 in the assay with SK-MEL-5 was 9.12 µM (inactive); with U-251, 50.7 µM (inactive); with MDA-MB-435, 29.9 µM (inactive); in the assay with K562, 9.57 µM (inactive); in the assay on SNB-75 it was 18.1 µM (inactive); in the assay on IGROV-1 it was > 100 µM (inactive). For the same molecule, the GI50 is 22.3 µM (inactive) in the assay on HOP-92 and 53 µM with HCT-15.
